Measured values taken from US10208033B2, “β-carboline, dihydro-β-carboline and tetrahydro-β-carboline alkaloid derivatives and preparation methods same and use in aspects of preventing and treating plant viruses, fungicides and insecticides” (NANKAI UNIVERSITY, priority 2013, dated 2019).
Where a name gives a salt, the structure may show the parent alone. Read-outs that look alike come from different tables or passages of the source.

Columns and labels:
[1] = test system: tobacco mosaic virus (TMV); assay: Anti-TMV in vivo inactivation; set-up: species or system tobacco mosaic virus (host Nicotiana tabacum L.cv.Xanthi NN)
[2] = test system: tobacco mosaic virus (TMV); assay: Anti-TMV in vitro effect (half-leaf soaking); type: cell-based, tobacco mosaic virus (host Nicotiana tabacum L.cv.Xanthi NN)
[3] = test system: tobacco mosaic virus (TMV); assay: Anti-TMV in vivo protective effect; set-up: species or system tobacco mosaic virus (host Nicotiana tabacum L.cv.Xanthi NN)
cucumber fusarium wilt = assay: Fungicidal (bactericidal) activity in vitro, PDA colony diameter; type: cell-based; conditions: 50 mg/kg
mosquito larvae = assay: whole plant or invertebrate
Method: Experimental method of mosquito larvae: culex pipiens pallens, a normal colony raised indoors. Weigh about 5 mg of the compound for test, put it in a penicillin vial, add 5 mL of acetone (or an appropriate solvent), and shake and dissolve it to obtain a 1000 ppm mother solution. Pipette 0.5 mL of the mother solution, add it to a 100 mL beaker filled with 89.9 mL of water, select 10 mosquito larvae at the beginning of the fourth instar, and pour them to a beaker together with 10 mL of feeding solution. The concentration of the drug solution is 5 ppm. […] Use an aqueous solution containing 0.5 mL of test solvent as a blank.

armyworms = type: in vivo; conditions: concentration 600 mg/kg
Cercospora arachidicola = assay: Fungicidal (bactericidal) activity in vitro, PDA colony diameter; type: cell-based
Alternaria solani = assay: as above; type: cell-based; conditions: 50 mg/kg
Fusarium graminearumt = assay: microbe, parasite or virus in culture; type: cell-based; conditions: 50 mg/kg
Fusarium fujikuroi = assay: Fungicidal (bactericidal) activity in vitro, PDA colony diameter; type: cell-based
cotton bollworms = assay: whole plant or invertebrate
Method: Experimental method of cotton bollworms: feed and drug mixing method: measure 3 mL of prepared solution and add it to about 27 g of newly prepared feed, thereby obtaining needed concentration through dilution by 10 times.

Bipolaria maydis = assay: organism not typed; type: cell-based; conditions: 50 mg/kg
Botrytis cinerea = assay: Fungicidal (bactericidal) activity in vitro, PDA colony diameter; type: cell-based; conditions: 50 mg/kg
Macrophoma kawatsukai = assay: as above; type: cell-based; conditions: 50 mg/kg
[4] = test system: tobacco mosaic virus (TMV); assay: Anti-TMV in vivo therapeutic effect; set-up: species or system tobacco mosaic virus (host Nicotiana tabacum L.cv.Xanthi NN)
Sclerotinia scleotiorum = assay: Fungicidal (bactericidal) activity in vitro, PDA colony diameter; type: cell-based; conditions: 50 mg/kg
[5] = test system: Colletotrichum orbiculare; assay: as above; type: cell-based; conditions: 50 mg/kg
Rhizoctonia cereali = assay: as above; type: cell-based; conditions: 50 mg/kg
potato late blight = assay: microbe, parasite or virus in culture; type: cell-based
Rhizoctonia solani = assay: Fungicidal (bactericidal) activity in vitro, PDA colony diameter; type: cell-based; conditions: 50 mg/kg
Phytophthora capsici = assay: as above; type: cell-based; conditions: 50 mg/kg

Row | SMILES | Relative inhibition rate (%) In vivo inactivation ([1]; treatment dose 100 μg/mL) [%] | Relative inhibition rate (%) In vivo inactivation ([1]; treatment dose 500 μg/mL) [%] | Relative inhibition rate (%) In vitro activity ([2]; treatment dose 100 μg/mL) [%] | Relative inhibition rate (%) In vitro activity ([2]; treatment dose 500 μg/mL) [%] | Relative inhibition rate (%) In vivo protection ([3]; treatment dose 100 μg/mL) [%] | Relative inhibition rate (%) In vivo protection ([3]; treatment dose 500 μg/mL) [%] | Bactericidal activity (%) Cucumber fusarium wilt (cucumber fusarium wilt) [%] | Armyworm Mortality (%) (armyworms) | Bactericidal activity (%) Alternaria solani (Alternaria solani) [%] | Bactericidal activity (%) Fusarium graminearumt (Fusarium graminearumt) [%] | Bactericidal activity (%) Bipolaria maydis (Bipolaria maydis) [%] | Bactericidal activity (%) Botrytis cinerea (Botrytis cinerea) [%] | Bactericidal activity (%) Macrophoma kawatsukai (Macrophoma kawatsukai) [%] | Relative inhibition rate (%) In vivo therapy ([4]; treatment dose 100 μg/mL) [%] | Relative inhibition rate (%) In vivo therapy ([4]; treatment dose 500 μg/mL) [%] | Bactericidal activity (%) Sclerotinia scleotiorum (Sclerotinia scleotiorum) [%] | Bactericidal activity (%) Colletotrichum orbiculare [5] [%] | Bactericidal activity (%) Rhizoctonia cereali (Rhizoctonia cereali) [%] | Bactericidal activity (%) Rhizoctonia solani (Rhizoctonia solani) [%] | Bactericidal activity (%) Phytophthora capsici (Phytophthora capsici) [%] | also measured
1 | CC(=O)Oc1ccc2c(c1)[nH]c1c(C)nccc12 [Ia-7, Acetate (1-methylpyridino [3,4-b]indol-7)-ester] | 0 | 20.3 | 0 | 30 | 0 | 27.2 | 14.3 | 35 | 33.3 | 35.7 | 21.1 | 36.4 | 5.9 | 0 | 24.1 | 76.0 | 33.3 | 62.5 | 0.0 | 18.2 | Mosquito larvae Mortality (%) (mosquito larvae; concentration 10 mg/kg, 24 h): 65%; Corn borer Mortality (%) (corn borers; concentration 600 mg/kg): 25%; Bactericidal activity (%) Cercospora arachidicola (Cercospora arachidicola): 35.7%; Bactericidal activity (%) Fusarium fujikuroi (Fusarium fujikuroi): 35.7%; Cotton bollworm Mortality (%) (cotton bollworms; concentration 600 mg/kg): 30%; Bactericidal activity (%) potato late blight (potato late blight; 50 mg/kg): 20.0%
2 | CCOC(=O)c1cc2c([nH]c3ccccc32)c(C)n1 [Ia-10, 1-methyl-pyridino [3,4-b] indol-3-ethyl formate] | 0 | 26.3 | 0 | 33.3 | 0 | 23.7 | 23.8 | 30 | 61.1 | 71.4 | 36.8 | 13.6 | 52.9 | 0 | 28.8 | 68.0 | 47.6 | 78.1 | 39.3 | 51.5 | Mosquito larvae Mortality (%) (mosquito larvae; concentration 10 mg/kg, 24 h): 65%; Corn borer Mortality (%) (corn borers; concentration 600 mg/kg): 30%; Bactericidal activity (%) Cercospora arachidicola (Cercospora arachidicola; 50 mg/kg): 35.7%; Bactericidal activity (%) Fusarium fujikuroi (Fusarium fujikuroi; 50 mg/kg): 35.7%; Cotton bollworm Mortality (%) (cotton bollworms; concentration 600 mg/kg): 40%; Bactericidal activity (%) potato late blight (potato late blight; 50 mg/kg): 35.0%
3 | Cc1nc(/C=C/C(=O)O)cc2c1[nH]c1ccccc12 [Ia-14, (E)-3-(1-methyl-pyridino [3,4-b]indol-3)-acrylic acid] | 0 | 18.4 | 0 | 25.8 | 0 | 28.4 | 23.1 | 25 | 10.5 | 14.3 | 22.7 | 12.1 | 47.6 | 0 | 21.5 | 9.8 | 25.0 | 63.2 | 39.5 | 18.8 | Mosquito larvae Mortality (%) (mosquito larvae; concentration 10 mg/kg, 24 h): 35%; Corn borer Mortality (%) (corn borers; concentration 600 mg/kg): 20%; Bactericidal activity (%) Cercospora arachidicola (Cercospora arachidicola; 50 mg/kg): 84.6%; Bactericidal activity (%) Fusarium fujikuroi (Fusarium fujikuroi; 50 mg/kg): 28.6%; Cotton bollworm Mortality (%) (cotton bollworms; concentration 600 mg/kg): 30%; Bactericidal activity (%) potato late blight (potato late blight): 22.7%
4 | O=C(O)/C=C/c1cc2c([nH]c3ccccc32)c(-c2cccs2)n1 [Ia-15, (E)-3-(1-(thiophene-2)-pyridino [3,4-b]indol-3)-acrylic acid] | 13.5 | 39.6 | 0 | 40.2 | 10.2 | 35.1 | 33.3 | 15 | 22.2 | 78.6 | 73.7 | 68.2 | 58.8 | 10 | 36.2 | 76.0 | 66.7 | 81.3 | 17.9 | 66.7 | Mosquito larvae Mortality (%) (mosquito larvae; concentration 10 mg/kg, 24 h): 35%; Corn borer Mortality (%) (corn borers; concentration 600 mg/kg): 5%; Bactericidal activity (%) Cercospora arachidicola (Cercospora arachidicola; 50 mg/kg): 21.4%; Bactericidal activity (%) Fusarium fujikuroi (Fusarium fujikuroi; 50 mg/kg): 64.3%; Cotton bollworm Mortality (%) (cotton bollworms; concentration 600 mg/kg): 15%; Bactericidal activity (%) potato late blight (potato late blight): 55.0%
5 | O=C(O)/C=C/c1cc2c([nH]c3ccccc32)c(-c2cccnc2)n1 [Ia-16, (E)-3-(1-(pyridine-3)-pyridino [3,4-b]indol-3)-acrylic acid] | 0 | 26.5 | 0 | 17.8 | 0 | 21.3 | 4.8 | 10 | 22.2 | 42.9 | 15.8 | 4.6 | 23.5 | 0 | 20.2 | 76.0 | 23.8 | 53.1 | 0.0 | 9.1 | Mosquito larvae Mortality (%) (mosquito larvae; in vivo): 20%; Corn borer Mortality (%) (corn borers; in vivo): 10%; Bactericidal activity (%) Cercospora arachidicola (Cercospora arachidicola; 50 mg/kg): 0.0%; Bactericidal activity (%) Fusarium fujikuroi (Fusarium fujikuroi; 50 mg/kg): 28.6%; Cotton bollworm Mortality (%) (cotton bollworms; in vivo): 5%; Bactericidal activity (%) potato late blight (potato late blight): 15.0%
